Results from PubChem BioAssay (NCI).
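Five compound concentrations were applied to cells in 96-well plates for 48 hours; endpoints were derived by simple linear interpolation of the resulting dose-response curve. TGI is the concentration that stops growth completely.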

Experiments:
Test in all cases: NCI anticancer screen, dose series, 48 h
LOX IMVI melanoma = tested on: LOX IMVI melanoma
COLO 205 colon = tested on: COLO 205 colon
NCI-H226 lung = tested on: NCI-H226 lung
SF-295 CNS = tested on: SF-295 CNS
HCT-15 colon = tested on: HCT-15 colon
EKVX NSCLC = tested on: EKVX NSCLC
DLD-1 colon = tested on: DLD-1 colon
MOLT-4 leukemia = tested on: MOLT-4 leukemia
HT29 colon = tested on: HT29 colon
SF-268 CNS = tested on: SF-268 CNS
SNB-19 CNS = tested on: SNB-19 CNS
SW-620 colon = tested on: SW-620 colon
OVCAR-3 ovarian = tested on: OVCAR-3 ovarian
786-0 renal = tested on: 786-0 renal
CCRF-CEM leukemia = tested on: CCRF-CEM leukemia
UACC-62 melanoma = tested on: UACC-62 melanoma
LXFL 529 NSCLC = tested on: LXFL 529 NSCLC
UACC-257 melanoma = tested on: UACC-257 melanoma
SK-MEL-5 melanoma = tested on: SK-MEL-5 melanoma
RXF-631 renal = tested on: RXF-631 renal
ACHN renal = tested on: ACHN renal
DMS 273 small cell lung = tested on: DMS 273 small cell lung
SNB-78 CNS = tested on: SNB-78 CNS
HCT-116 colon = tested on: HCT-116 colon
HL-60(TB) leukemia = tested on: HL-60(TB) leukemia
NCI-H522 lung = tested on: NCI-H522 lung
A549 NSCLC = tested on: A549 NSCLC
OVCAR-5 ovarian = tested on: OVCAR-5 ovarian
OVCAR-4 ovarian = tested on: OVCAR-4 ovarian
CAKI-1 renal = tested on: CAKI-1 renal
MALME-3M melanoma = tested on: MALME-3M melanoma
TK-10 renal = tested on: TK-10 renal
M14 melanoma = tested on: M14 melanoma
SK-MEL-28 melanoma = tested on: SK-MEL-28 melanoma
RPMI-8226 leukemia = tested on: RPMI-8226 leukemia
HOP-92 NSCLC = tested on: HOP-92 NSCLC
K-562 leukemia = tested on: K-562 leukemia
UO-31 renal = tested on: UO-31 renal
DMS 114 small cell lung = tested on: DMS 114 small cell lung
SF-539 CNS = tested on: SF-539 CNS
HOP-62 NSCLC = tested on: HOP-62 NSCLC
A498 renal = tested on: A498 renal
RXF 393 renal = tested on: RXF 393 renal
SN12C renal = tested on: SN12C renal
OVCAR-8 ovarian = tested on: OVCAR-8 ovarian
HOP-18 NSCLC = tested on: HOP-18 NSCLC
NCI-H460 lung = tested on: NCI-H460 lung
M19-MEL melanoma = tested on: M19-MEL melanoma
IGROV1 ovarian = tested on: IGROV1 ovarian
KM12 colon = tested on: KM12 colon
U251 CNS = tested on: U251 CNS
SK-MEL-2 melanoma = tested on: SK-MEL-2 melanoma
NCI-H23 lung = tested on: NCI-H23 lung
SNB-75 CNS = tested on: SNB-75 CNS
SR leukemia = tested on: SR leukemia
HCC-2998 colon = tested on: HCC-2998 colon
SK-OV-3 ovarian = tested on: SK-OV-3 ovarian
KM20L2 colon = tested on: KM20L2 colon

With `COc1ccc(C(O)c2cc(OC)c(OC)c(OC)c2)cc1` (stereo not given) the TGI (LOX IMVI melanoma) was greater than 100 µM, the TGI (COLO 205 colon) was 26.4 µM and the TGI (NCI-H226 lung) was greater than 100 µM. It also gave a TGI (SF-295 CNS) of 29.2 µM, a TGI (HCT-15 colon) greater than 100 µM and a TGI (EKVX NSCLC) greater than 100 µM. For the same compound, the TGI (DLD-1 colon) was greater than 100 µM, the TGI (MOLT-4 leukemia) was greater than 100 µM and the TGI (HT29 colon) was greater than 100 µM. It also gave a TGI (SF-268 CNS) greater than 100 µM, a TGI (SNB-19 CNS) greater than 100 µM and a TGI (SW-620 colon) greater than 100 µM. It also gave a TGI (OVCAR-3 ovarian) of 47 µM, a TGI (786-0 renal) greater than 100 µM and a TGI (CCRF-CEM leukemia) greater than 100 µM. The TGI (UACC-62 melanoma) was greater than 100 µM, the TGI (LXFL 529 NSCLC) was greater than 100 µM and the TGI (UACC-257 melanoma) was greater than 100 µM. The TGI (SK-MEL-5 melanoma) was 42.2 µM, the TGI (RXF-631 renal) was greater than 100 µM and the TGI (ACHN renal) was greater than 100 µM. The TGI (DMS 273 small cell lung) was greater than 100 µM, the TGI (SNB-78 CNS) was greater than 100 µM and the TGI (HCT-116 colon) was greater than 100 µM. It also gave a TGI (HL-60(TB) leukemia) of 39.5 µM, a TGI (NCI-H522 lung) of 35.5 µM and a TGI (A549 NSCLC) greater than 100 µM. The TGI (OVCAR-5 ovarian) was greater than 100 µM, the TGI (OVCAR-4 ovarian) was greater than 100 µM and the TGI (CAKI-1 renal) was greater than 100 µM. It also gave a TGI (MALME-3M melanoma) greater than 100 µM, a TGI (TK-10 renal) greater than 100 µM and a TGI (M14 melanoma) of 83.3 µM. It also gave a TGI (SK-MEL-28 melanoma) greater than 100 µM, a TGI (RPMI-8226 leukemia) greater than 100 µM and a TGI (HOP-92 NSCLC) greater than 100000 nM. The TGI (K-562 leukemia) was greater than 100 µM, the TGI (UO-31 renal) was greater than 100 µM and the TGI (DMS 114 small cell lung) was 37.5 µM. The TGI (SF-539 CNS) was 63.7 µM, the TGI (HOP-62 NSCLC) was greater than 100 µM and the TGI (A498 renal) was greater than 100 µM. It also gave a TGI (RXF 393 renal) of 30.6 µM, a TGI (SN12C renal) greater than 100 µM and a TGI (OVCAR-8 ovarian) greater than 100 µM. The TGI (HOP-18 NSCLC) was greater than 100 µM, the TGI (NCI-H460 lung) was greater than 100 µM and the TGI (M19-MEL melanoma) was greater than 100 µM. For the same compound, the TGI (IGROV1 ovarian) was greater than 100 µM, the TGI (KM12 colon) was greater than 100 µM and the TGI (U251 CNS) was greater than 100 µM.
Compound `CC(C)(CN1CCCCC1)C(=O)/C=C/c1ccc(Cl)c(Cl)c1` has a TGI (LOX IMVI melanoma) of 2.76 µM, a TGI (COLO 205 colon) of 2.85 µM and a TGI (NCI-H226 lung) of 3.15 µM. The TGI (SF-295 CNS) was 5.86 µM, the TGI (HCT-15 colon) was 2.73 µM and the TGI (EKVX NSCLC) was 3.29 µM. It also gave a TGI (DLD-1 colon) of 3.5 µM, a TGI (MOLT-4 leukemia) of 4.57 µM and a TGI (HT29 colon) of 3.06 µM. For the same compound, the TGI (SF-268 CNS) was 3.74 µM, the TGI (SNB-19 CNS) was 12.2 µM and the TGI (SW-620 colon) was 2.94 µM. The TGI (OVCAR-3 ovarian) was 2.94 µM, the TGI (786-0 renal) was 2.69 µM and the TGI (CCRF-CEM leukemia) was 3.27 µM. For the same compound, the TGI (UACC-62 melanoma) was 4.06 µM, the TGI (SK-MEL-2 melanoma) was 3.18 µM and the TGI (NCI-H23 lung) was 3.26 µM. It also gave a TGI (LXFL 529 NSCLC) of 2.78 µM, a TGI (SNB-75 CNS) of 3.13 µM and a TGI (SR leukemia) of 4.69 µM. For the same compound, the TGI (UACC-257 melanoma) was 2.41 µM, the TGI (SK-MEL-5 melanoma) was 3.5 µM and the TGI (RXF-631 renal) was 3.72 µM. The TGI (ACHN renal) was 2.88 µM, the TGI (DMS 273 small cell lung) was 3.2 µM and the TGI (SNB-78 CNS) was 4.5 µM. For the same compound, the TGI (HCT-116 colon) was 3.08 µM, the TGI (HL-60(TB) leukemia) was 3.4 µM and the TGI (NCI-H522 lung) was 2.67 µM. The TGI (A549 NSCLC) was 4.07 µM, the TGI (OVCAR-5 ovarian) was 3.08 µM and the TGI (OVCAR-4 ovarian) was 2.87 µM. It also gave a TGI (MALME-3M melanoma) of 3.31 µM, a TGI (TK-10 renal) of 2.8 µM and a TGI (M14 melanoma) of 3.07 µM. The TGI (SK-MEL-28 melanoma) was 3.37 µM, the TGI (RPMI-8226 leukemia) was 5.34 µM and the TGI (HOP-92 NSCLC) was 2340 nM. The TGI (K-562 leukemia) was 4.13 µM, the TGI (UO-31 renal) was 2.99 µM and the TGI (DMS 114 small cell lung) was 3.05 µM. It also gave a TGI (SF-539 CNS) of 4.6 µM, a TGI (HOP-62 NSCLC) of 3.8 µM and a TGI (A498 renal) of 3.09 µM. The TGI (HCC-2998 colon) was 3.21 µM, the TGI (RXF 393 renal) was 2.42 µM and the TGI (SN12C renal) was 2.92 µM. It also gave a TGI (OVCAR-8 ovarian) greater than 100 µM, a TGI (HOP-18 NSCLC) of 2.85 µM and a TGI (NCI-H460 lung) of 3.46 µM. It also gave a TGI (M19-MEL melanoma) of 3.21 µM, a TGI (IGROV1 ovarian) of 4.15 µM and a TGI (SK-OV-3 ovarian) of 7.51 µM. For the same compound, the TGI (KM12 colon) was 3.25 µM and the TGI (U251 CNS) was 2.7 µM.
Compound `CC1(C)C2CCC13C(=O)C1OC3(C2)C2C(=O)N(c3ccccc3)C(=O)C12` (stereo not given) has a TGI (LOX IMVI melanoma) greater than 100 µM, a TGI (COLO 205 colon) greater than 100 µM and a TGI (NCI-H226 lung) greater than 100 µM. The TGI (SF-295 CNS) was greater than 100 µM, the TGI (HCT-15 colon) was greater than 100 µM and the TGI (EKVX NSCLC) was greater than 100 µM. The TGI (MOLT-4 leukemia) was greater than 100 µM, the TGI (HT29 colon) was greater than 100 µM and the TGI (SF-268 CNS) was greater than 100 µM. It also gave a TGI (SNB-19 CNS) greater than 100 µM, a TGI (SW-620 colon) greater than 100 µM and a TGI (OVCAR-3 ovarian) greater than 100 µM. For the same compound, the TGI (786-0 renal) was greater than 100 µM, the TGI (CCRF-CEM leukemia) was greater than 100 µM and the TGI (UACC-62 melanoma) was greater than 100 µM. It also gave a TGI (SK-MEL-2 melanoma) greater than 100 µM, a TGI (NCI-H23 lung) greater than 100 µM and a TGI (LXFL 529 NSCLC) greater than 100 µM. The TGI (SNB-75 CNS) was greater than 100 µM, the TGI (UACC-257 melanoma) was greater than 100 µM and the TGI (SK-MEL-5 melanoma) was greater than 100 µM. For the same compound, the TGI (RXF-631 renal) was greater than 100 µM, the TGI (ACHN renal) was greater than 100 µM and the TGI (DMS 273 small cell lung) was greater than 100 µM. It also gave a TGI (SNB-78 CNS) greater than 100 µM, a TGI (HCT-116 colon) greater than 100 µM and a TGI (HL-60(TB) leukemia) greater than 100 µM. The TGI (NCI-H522 lung) was 49.1 µM, the TGI (A549 NSCLC) was greater than 100 µM and the TGI (OVCAR-5 ovarian) was greater than 100 µM. The TGI (OVCAR-4 ovarian) was greater than 100 µM, the TGI (CAKI-1 renal) was greater than 100 µM and the TGI (MALME-3M melanoma) was greater than 100 µM. For the same compound, the TGI (TK-10 renal) was greater than 100 µM, the TGI (M14 melanoma) was greater than 100 µM and the TGI (RPMI-8226 leukemia) was greater than 100 µM. The TGI (K-562 leukemia) was greater than 100 µM, the TGI (UO-31 renal) was greater than 100 µM and the TGI (DMS 114 small cell lung) was greater than 100 µM. It also gave a TGI (SF-539 CNS) greater than 100 µM, a TGI (HOP-62 NSCLC) greater than 100 µM and a TGI (A498 renal) greater than 100 µM. It also gave a TGI (HCC-2998 colon) greater than 100 µM, a TGI (KM20L2 colon) greater than 100 µM and a TGI (RXF 393 renal) greater than 100 µM. For the same compound, the TGI (SN12C renal) was greater than 100 µM, the TGI (OVCAR-8 ovarian) was greater than 100 µM and the TGI (HOP-18 NSCLC) was greater than 100 µM. For the same compound, the TGI (NCI-H460 lung) was greater than 100 µM, the TGI (IGROV1 ovarian) was greater than 100 µM and the TGI (SK-OV-3 ovarian) was greater than 100 µM. For the same compound, the TGI (KM12 colon) was greater than 100 µM and the TGI (U251 CNS) was greater than 100 µM.
